In patent US20110294772A1, “USE OF CYCLOSQUARAMIDE COMPOUNDS AS ANTI-TUMOUR AGENTS” (priority 2008, published 2011) one finds IC50 data, which are given here for 6 compounds.

The subject of this assay is Jeko-1. The experiment in a line: cell viability assay. The format is cell-based, human. Particulars: cell viability, total incubation period 48 h, read-out: IC50 (μM) against Jeko-1 cells. Here is the method:
The IC50 in cell viability assays were determined for some of the macrocycles prepared in Jeko-1 (B-cell lymphoma (MCL) type cells. With a total incubation period of 48 h.

Read-outs that look alike come from different tables or passages of the source.

For the compound `CN1CCCNc2c(c(=O)c2=O)NCCCN(C)CCCNc2c(c(=O)c2=O)NCCCN(C)CCCNc2c(c(=O)c2=O)NCCCN(C)CCCNc2c(c(=O)c2=O)NCCCN(C)CCCNc2c(c(=O)c2=O)NCCCN(C)CCCNc2c(c(=O)c2=O)NCCC1` [Compound 1], the IC50 (in general, the point on the concentration scale where inhibition reaches its midpoint) worked out at 27 µM.

With `CN1CCCNc2c(c(=O)c2=O)NCCCN(C)CCCNc2c(c(=O)c2=O)NCCCN(C)CCCNc2c(c(=O)c2=O)NCCCN(C)CCCNc2c(c(=O)c2=O)NCCCN(C)CCCNc2c(c(=O)c2=O)NCCCN(C)CCCNc2c(c(=O)c2=O)NCCC1` [Compound 2], the IC50 stood at 45 µM.

As to `CSCCC1Nc2c(c(=O)c2=O)NCCCN(C)CCCNc2c(c(=O)c2=O)NCCCN(C)CCCNc2c(c(=O)c2=O)NCCCN(C)CCCNc2c(c(=O)c2=O)NCCCN(C)CCCNc2c(c(=O)c2=O)NCCCNC1=O` (stereo not drawn) [Compound 3], for the setting “Homo sapiens, JeKo-1, 48 h”, the concentration for half-maximal inhibition (IC50) is 34 µM. Same read-out and setting: next, `CSCCC1Nc2c(c(=O)c2=O)NCCCN(C)CCCNc2c(c(=O)c2=O)NCCCN(C)CCCNc2c(c(=O)c2=O)NCCCN(C)CCCNc2c(c(=O)c2=O)NCCCN(C)CCCNc2c(c(=O)c2=O)NCCCN(C)CCCNc2c(c(=O)c2=O)NCCCNC1=O` (stereo not drawn) [Compound 4]: 24 µM. In the case of `CN1CCCNc2c(c(=O)c2=O)NCCCN(C)CCCNc2c(c(=O)c2=O)NCCCN(C)CCCNc2c(c(=O)c2=O)NCCCN(C)CCCNc2c(c(=O)c2=O)NCCCN(C)CCCNc2c(c(=O)c2=O)NCCCN(C)CCCNc2c(c(=O)c2=O)NCCC1` [Compound 5], the IC50 was 50 µM. For the compound `CN1CCCNc2c(c(=O)c2=O)NCCCN(C)CCCNc2c(c(=O)c2=O)NCCCN(C)CCCNc2c(c(=O)c2=O)NCCCN(C)CCCNc2c(c(=O)c2=O)NCCCN(C)CCCNc2c(c(=O)c2=O)NCCCN(C)CCCNc2c(c(=O)c2=O)NCCC1` [Compound 11], the IC50 is 9.4 µM.
